Results published in patent US9302999B2, “Substituted triazoles as herbicides” (E. I. DU PONT DE NEMOURS AND COMPANY, priority 2012, dated 2016).
Like-named read-outs stand apart in the source and are kept apart here.

How the values were obtained:
Type in all cases: in vivo
[1] = tested on: foxtail, giant (giant foxtail, Setaria faberii); test: Test A pre-/postemergence: foxtail, giant; details: for pest or weed control at 125 g/ha / pest or weed control at 500 g/ha: Setaria faberi, 240 h
Procedure, shortened: (§1)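 Pre: directed soil spray after planting in loam + sand. Post: same formulation (non-phytotoxic solvent + surfactant) on 1–2-leaf plants, 2–10 cm. Greenhouse ~10 d; visual injury 0–100 vs untreated.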

[2] = tested on: crabgrass, large (large crabgrass, Digitaria sanguinalis); test: Test A pre-/postemergence: crabgrass, large; details: for pest or weed control at 125 g/ha / pest or weed control at 500 g/ha: Digitaria sanguinalis, 240 h
Procedure, shortened: as §1

[3] = tested on: barnyardgrass (Echinochloa crus-galli); test: Test A pre-/postemergence: barnyardgrass; details: for pest or weed control at 125 g/ha / pest or weed control at 500 g/ha: Echinochloa crus-galli, 240 h
Procedure, shortened: as §1

[4] = tested on: johnsongrass (Sorghum halepense); test: Test C pre-/postemergence: johnsongrass; details: Preemergence
From the text: (§2) Seeds of plant species selected from blackgrass (Alopecurus myosuroides), bromegrass, downy (downy bromegrass, Bromus tectorum), foxtail, green (green foxtail, Setaria viridis), ryegrass, Italian (Italian ryegrass, Lolium multiflorum), winter wheat (Triticum aestivum), wild oat (Avena fatua), galium (catchweed bedstraw, Galium aparine), bermudagrass (Cynodon dactylon), surinam grass (Brachiaria decumbens), cocklebur (common cocklebur, Xanthium strumarium), corn (Zea mays), large crabgrass (Digitaria sanguinalis), woolly cupgrass (Eriochloa villosa), foxtail, giant (giant foxtail, Setaria faberii), goosegrass (Eleusine indica), johnsongrass (Sorghum halepense), kochia (Kochia scoparia), lambsquarters (Chenopodium album), morningglory (Ipomoea coccinea), nightshade (eastern black nightshade, Solanum ptycanthum), nutsedge, yellow (yellow nutsedge, Cyperus esculentus), pigweed (Amaranthus retroflexus), ragweed (common ragweed, Ambrosia elation), soybean (Glycine max), common (oilseed) sunflower (Helianthus annuus), Russian thistle (Salsola kali) and velvetleaf (Abutilon theophrasti) were planted into a blend of loam soil and sand and treated preemergence with test chemicals formulated in a non-phytotoxic solvent mixture which included a surfactant.
(§3) At the same time, plants selected from these crop and weed species and also barley (winter barley, Hordeum vulgare), canarygrass (Phalaris minor), chickweed (common chickweed, Stellaria media) windgrass (Apera spica-venti) and deadnettle (henbit deadnettle, Lamium amplexicaule) were planted in pots containing Redi-Earth® planting medium (Scotts Company, 14111 Scottslawn Road, Marysville, Ohio 43041) comprising spaghnum peat moss, vermiculite, wetting agent and starter nutrients and treated with postemergence applications of test chemicals formulated in the same manner. Plants ranged in height from 2 to 18 cm (1- to 4-leaf stage) for postemergence treatments.
(§4) Treated plants and controls were maintained in a greenhouse for 13 to 15 days, after which time all species were compared to controls and visually evaluated. Plant response ratings, summarized in Table C, are based on a scale of 0 to 100 where 0 is no effect and 100 is complete control. A dash (-) response means no test result.

[5] = tested on: large crabgrass (Digitaria sanguinalis); test: Test C pre-/postemergence: large crabgrass; details: Preemergence
From the text: as §2, §3, §4

[6] = tested on: nutsedge, yellow (yellow nutsedge, Cyperus esculentus); test: Test C pre-/postemergence: nutsedge, yellow; details: Preemergence
From the text: as §2, §3, §4

corn (Zea mays) = test: Test C pre-/postemergence: corn; details: Preemergence
From the text: as §2, §3, §4

[7] = tested on: winter wheat (Triticum aestivum); test: Test C pre-/postemergence: winter wheat; details: Preemergence
From the text: as §2, §3, §4

soybean (Glycine max) = test: Test C pre-/postemergence: soybean; details: Preemergence
From the text: as §2, §3, §4

[8] = tested on: blackgrass (Alopecurus myosuroides); test: Test C pre-/postemergence: blackgrass; details: Preemergence
From the text: as §2, §3, §4

[9] = post-emergence, Postemergence, 125 g ai/ha, 0 to 100 scale, 0 is no effect, 100 is complete control, read-out: Foxtail, Giant plant response rating
[10] = post-emergence, Postemergence, 500 g ai/ha, visual rating on 0 to 100 scale (0 no effect, 100 complete control), approximately ten days, read-out: Foxtail, Giant plant response rating
[11] = post-emergence, Postemergence, 125 g ai/ha, 0 to 100 scale, 0 is no effect, 100 is complete control, read-out: Crabgrass, Large plant response rating
[12] = post-emergence, Postemergence, 500 g ai/ha, visual rating on 0 to 100 scale (0 no effect, 100 complete control), approximately ten days, read-out: Crabgrass, Large plant response rating
[13] = post-emergence, Postemergence, 125 g ai/ha, 0 to 100 scale, 0 is no effect, 100 is complete control, read-out: Barnyardgrass plant response rating
[14] = post-emergence, Postemergence, 500 g ai/ha, visual rating on 0 to 100 scale (0 no effect, 100 complete control), approximately ten days, read-out: Barnyardgrass plant response rating
[15] = 16 g ai/ha, scale 0 (no effect) to 100 (complete control)
[16] = 31 g ai/ha, scale 0 (no effect) to 100 (complete control)
[17] = 62 g ai/ha, scale of 0 to 100, 0 is no effect, 100 is complete control
[18] = 125 g ai/ha, scale 0 to 100, 0 no effect, 100 complete control
[19] = Postemergence, 125 g ai/ha, 0 to 100 scale, 0 is no effect, 100 is complete control
[20] = Postemergence, 500 g ai/ha, 0 to 100 scale, 0 is no effect, 100 is complete control
[21] = Preemergence, 125 g ai/ha, 0 to 100 scale where 0 is no effect and 100 is complete control
[22] = Preemergence, 500 g ai/ha, 0 to 100 scale (0 no effect, 100 complete control)

SMILES: CCc1nn(-c2ccc(C(F)(F)F)cc2)nc1Oc1cccc(OC(F)(F)F)c1 [Compound 125, 4-ethyl-5-[3-(trifluoromethoxy)phenoxy]-2-[4-(trifluoromethyl)phenyl]-2H-1,2,3-triazole]
- pest or weed control at 125 g/ha [1, 9]: 50%
- pest or weed control at 500 g/ha [1, 10]: 60%
- pest or weed control at 125 g/ha ([1]; pre-emergence, Preemergence, 125 g ai/ha, 0 to 100 scale where 0 is no effect and 100 is complete control, read-out: Plant response rating, Foxtail, Giant): 80%
- pest or weed control at 500 g/ha ([1]; pre-emergence, Preemergence, 500 g ai/ha, 0 to 100 scale (0 no effect, 100 complete control), read-out: Plant response rating, Foxtail, Giant): 90%
- pest or weed control at 125 g/ha [2, 11]: 60%
- pest or weed control at 500 g/ha [2, 12]: 90%
- pest or weed control at 125 g/ha ([2]; pre-emergence, Preemergence, 125 g ai/ha, 0 to 100 scale where 0 is no effect and 100 is complete control, read-out: Plant response rating, Crabgrass, Large): 80%
- pest or weed control at 500 g/ha ([2]; pre-emergence, Preemergence, 500 g ai/ha, 0 to 100 scale (0 no effect, 100 complete control), read-out: Plant response rating, Crabgrass, Large): 90%
- pest or weed control at 125 g/ha [3, 13]: 0%
- pest or weed control at 500 g/ha [3, 14]: 30%
- pest or weed control at 125 g/ha ([3]; pre-emergence, Preemergence, 125 g ai/ha, 0 to 100 scale where 0 is no effect and 100 is complete control, read-out: Plant response rating, Barnyardgrass): 30%
- pest or weed control at 500 g/ha ([3]; pre-emergence, Preemergence, 500 g ai/ha, 0 to 100 scale (0 no effect, 100 complete control), read-out: Plant response rating, Barnyardgrass): 50%

SMILES: CCOc1nn(-c2ccc(Br)cc2)nc1Cc1ccnc(C(F)(F)F)c1 [Compound 189]
- Plant response rating, Johnsongrass [4, 15]: 30
- Plant response rating, Johnsongrass [4, 16]: 50
- Plant response rating, Johnsongrass [4, 17]: 85
- Plant response rating, Johnsongrass [4, 18]: 85
- Plant response rating, Crabgrass, Large [5, 15]: 98
- Plant response rating, Crabgrass, Large [5, 16]: 98
- Plant response rating, Crabgrass, Large [5, 17]: 100
- Plant response rating, Crabgrass, Large [5, 18]: 100
- Plant response rating, Nutsedge, Yellow [6, 15]: 0
- Plant response rating, Nutsedge, Yellow [6, 16]: 0
- Plant response rating, Nutsedge, Yellow [6, 17]: 0
- Plant response rating, Nutsedge, Yellow [6, 18]: 0
- Plant response rating, Foxtail, Giant [1, 19]: 90
- Foxtail, Giant plant response rating [1, 20]: 90
- Plant response rating, Foxtail, Giant [1, 21]: 100
- Plant response rating, Foxtail, Giant [1, 22]: 100
- Plant response rating, Corn (corn (Zea mays); [15]): 5
- Plant response rating, Corn (corn (Zea mays); [16]): 5
- Plant response rating, Corn (corn (Zea mays); [17]): 15
- Plant response rating, Corn (corn (Zea mays); [18]): 20
- Plant response rating, Crabgrass, Large [2, 19]: 80
- Crabgrass, Large plant response rating [2, 20]: 90
- Plant response rating, Crabgrass, Large [2, 21]: 100
- Plant response rating, Crabgrass, Large [2, 22]: 100
- Plant response rating, Wheat [7, 15]: 0
- Plant response rating, Wheat [7, 16]: 5
- Plant response rating, Wheat [7, 17]: 15
- Plant response rating, Wheat [7, 18]: 30
- Plant response rating, Soybean (soybean (Glycine max); [15]): 5
- Plant response rating, Soybean (soybean (Glycine max); [16]): 5
- Plant response rating, Soybean (soybean (Glycine max); [17]): 15
- Plant response rating, Soybean (soybean (Glycine max); [18]): 25
- Plant response rating, Blackgrass [8, 15]: 75
- Plant response rating, Blackgrass [8, 16]: 90
- Plant response rating, Blackgrass [8, 17]: 100
- Plant response rating, Blackgrass [8, 18]: 100
- Plant response rating, Barnyardgrass [3, 19]: 60
- Barnyardgrass plant response rating [3, 20]: 80
- Plant response rating, Barnyardgrass [3, 21]: 80
- Plant response rating, Barnyardgrass [3, 22]: 90

SMILES: COc1nn(-c2ccc(C(F)(F)F)cc2)nc1Cn1ccc(C(F)(F)F)n1 [Compound 17, 4-methoxy-2-[4-(trifluoromethyl)phenyl]-5-[[3-(trifluoromethyl)-1H-pyrazol-1-yl]methyl]-2H-1,2,3-triazole]
- pest or weed control at 125 g/ha [1, 9]: 60%
- pest or weed control at 500 g/ha [1, 10]: 80%
- pest or weed control at 125 g/ha ([1]; pre-emergence, Preemergence, 125 g ai/ha, 0 to 100 scale (0 no effect, 100 complete control), read-out: Plant response rating, Foxtail, Giant): 90%
- pest or weed control at 500 g/ha ([1]; pre-emergence, Preemergence, 500 g ai/ha, 0 to 100 scale, 0 is no effect, 100 is complete control, read-out: Plant response rating, Foxtail, Giant): 100%
- pest or weed control at 125 g/ha [2, 11]: 90%
- pest or weed control at 500 g/ha [2, 12]: 90%
- pest or weed control at 125 g/ha ([2]; pre-emergence, Preemergence, 125 g ai/ha, 0 to 100 scale (0 no effect, 100 complete control), read-out: Plant response rating, Crabgrass, Large): 100%
- pest or weed control at 500 g/ha ([2]; pre-emergence, Preemergence, 500 g ai/ha, 0 to 100 scale, 0 is no effect, 100 is complete control, read-out: Plant response rating, Crabgrass, Large): 100%
- pest or weed control at 125 g/ha [3, 13]: 30%
- pest or weed control at 500 g/ha [3, 14]: 90%
- pest or weed control at 125 g/ha ([3]; pre-emergence, Preemergence, 125 g ai/ha, 0 to 100 scale (0 no effect, 100 complete control), read-out: Plant response rating, Barnyardgrass): 30%
- pest or weed control at 500 g/ha ([3]; pre-emergence, Preemergence, 500 g ai/ha, 0 to 100 scale, 0 is no effect, 100 is complete control, read-out: Plant response rating, Barnyardgrass): 90%
